From US4966962A, “Reverse analogue of actinomycin D” (Trustees of Boston University, priority 1988, dated 1990)

Assays:
[1] = test system: B16 melanoma; assay: In vivo antitumor activity against B16 melanoma; design: species or system BDF1 mice
Procedure: ^a 0.2 mL of 1:5 (weight/volume) brei of B16 melanoma implanted
ip on day 0 in groups of nine BDF1 mice. Drugs administered ip^b
MST (range), median survival time in days (range of days for death of
individual animal). ^c % ILS (surv), percent increase in life span
(survivors on day 65/total injected).

[2] = test system: P388 Leukemia; assay: Minimum effective dose in P388 tumor bearing mice; format: in vivo
Source text: ^a Drugs administered ip once on days 1, 5, and 9 starting 1 day afte
tumor implantation. Determinations were made from analysis of plotted
logdose response data. ^b MED (minimum effective dose) is the dose
(milligram/killogram) providing an increase in life span of 45% over

[3] = Maximum tolerated dose (LD10) in tumor-free male mice; conditions: ip days 1, 5, 9; deaths observed during 21 days; from plot of log dose vs percent mortality
Procedure: The analogues were also tested in tumor-free male mice for their LD10 values (Table XIV). The animals were given a broad range of doses (ip) on days 1, 5, and 9. The maximum tolerated doses of AMD and the analogues that caused death in only 10% of the tested animals in 21 days (i.e., LD10) were recorded as MTD. […] On the basis of these values, the calculated therapeutic index values of SAD is 96, and those of RAD I, II, and III are 60, 67, and 70, respectively.
control in P388 tumor bearing mice. ^c MTD (maximum tolerated dose) i
the lethal dose (milligram/kilogram) for 10% normal BDF1 male mice
days). Values were calculated from a plot of log dose vs percent

[4] = test system: P388/S (adriamycin sensitive) leukemia; assay: Antitumor activity in vivo, P388/S leukemia; design: species or system mice; conditions: P388/S, at optimal dose, ip days 1, 5, 9
Procedure: The analogues were tested for their antitumor activities in P388 lymphocytic leukemia in male BDF1 mice.
^a Male CDF1 mic inoculated ip: 10^6 cells inoculum, day 0.
Drugs administered in 10% dimethyl sulfoxidesaline on days 1, 5, and 9. %
ILS = percent increase in life span. Fractions in parentheses = tumor fre
survivors/total on day 60^b. P388/S (adriamycin sensitive) and
P388/ADR (adriamycin resistant) tumors were evaluated in the same
experiment with agent listed.

[5] = test system: colon 38 adenocarcinoma; assay: Activity against advanced colon carcinoma C38 tumor; format: in vivo, CDF1 mice; conditions: for % inhibn of tumor: tumors measured day 21
Procedure: In view of favorable activity agianst colon 26 carcinoma, further experiments using the active analogues were carried out on the advanced colon adenocarcinomas of mouse colon 38. […] The superiority of RAD III and SAD over AMD in inhibiting colon 38 carcinoma is evident from the data of both tumor weight inhibition and increases in survival time of the treated over nontreated mice and the larger number of long-term survivors produced by these analogues.
^a CDF1 mice were injected sc with colon 38 adenocarcinoma
fragments (70 mg) and treated with drugs with iv injections on day 1, 5,
and 9 following tumor imoplantation on day 0. ^b [100 (tumor weight o
treated mice/tumor weight of untreated mice)] × 100; data pooled
from two experiments, tumors measured on day 21 after implantation ^c
(Median survival time of treated mice/median survival of untreated mice)
× 100; in parenthesis, number of over 100 day survivors/number of […]

[6] = Toxic deaths in nontumored mice treated in parallel (colon 38 experiment); format: in vivo
Source text: × 100; in parenthesis, number of over 100 day survivors/number of
mice in a group of nontumored mice treated in parallel with the
tumorbearing mice and observed for 100 days.

[7] = test system: CX-1 human colon adenocarcinoma; assay: Chemotherapy of human colon CX-1 tumor heterotransplanted in nude mice; format: in vivo, human tumor in athymic mice; conditions: for % T/C, optimal: TST 15, observed day 22
Procedure: Tables XI and XII show the effectiveness of SAD (2) and RAD (3b and 3c) against CX-1 human colon adenocarcinoma heterotransplanted into athymic mice, with three iv treatments with drugs on a weekly schedule starting on the 15th day of tumor transplant. AMD and the analogues were tested at doses of 45 and 60 ug/kg.
^a -, % T/C high than 50%; ±, % T/C close to 50%; +, % T/C from 50
to 35%; ++, % T/C from 35% to 20%; +++, % T/C lower than 20%; ++++,
regression of the tumor to a volume lower than 10% of the volume at the
start of treatment. ^b Statistically significant as evaluated by the
^a Intravenous treatment, once a week for three weeks; eight mice per
group. ^b TST; number of days between tumor transplant and starting o
treatment. ^c Numbers in parentheses; day of observation after the […]

[8] = test system: mammary MX-1; assay: Treatment of mammary MX-1 tumor; format: in vivo; conditions: at 60 mg/kg
[9] = test system: lung LX-1; assay: Treatment of lung LX-1 tumor; format: in vivo; conditions: at 60 mg/kg
[10] = test system: P388/ADR (adriamycin resistant) leukemia; assay: Antitumor activity in vivo, P388/ADR leukemia; design: species or system mice; conditions: at optimal dose, ip days 1, 5, 9
Procedure: The analogues were also tested against P388/ADR murine leukemia following the standard protocol (Table VI).
ILS = percent increase in life span.

[11] = test system: supercoiled closed-circular pBR322 DNA; assay: Cleavage of closed circular pBR322 DNA; format: biochemical; conditions: 20° C., 1 h, Na2S2O4, FeCl2
Procedure: The cleavage of DNA was followed by monitoring of the conversion of supercoiled closed-circular pBR322 DNA to open-circular DNA (analyzed by agarose gel electrophoresis and quantitated by staining with 0.5 ug/mL of ethidium bromide for 30 min and densitometry; (Table II). SAD and RAD show strong DNA-cleaving ability in the presence of sodium hydrosulfite and ferrous chloride. Presumably, sodium hydrosulfite acts as a reducing agent and regenerates Fe(II) from Fe(III) to produce a continuous source of the active metal ion. When the DNA-cleaving reaction with the analogues was performed at 20° C., the ratio of cleaved DNA (open circular form DNA versus closed circular DNA) was almost maximum within 1 h. […] Cleavage of DNA by the analogues is aided by the actinomycin chromopeptide moiety, which acts as a site-specific binder to DNA, and is effected by the aminoquinone function which is chelated to the ferrous ion during the process, and this is the likely candidate which generates the radical species.
Plasmid DNA pBR322 (0.5 ug) was dissolved in /8 μL of a reaction buffer (5 mM […], 10 mM Tris-HCl). To this solution, 1 μL of the 10 mM aqueous solution of the agent containing 1 mM FeCl2 was added. The mixture was incubated for 0.5-2 h at 20° or 37° C. Then, the incubation mixture was mixed with 10 uL of sample loading buffer (50% glycerin in 2 X Boyer's buffer containing 0.01% bromophenol blue). Finally, 5 uL of the mixture was analyzed by 0.7% agarose gel electrophoresis (120 V, Boyer's buffer; the migration distance of bromophenol blue was 5.0 cm). The gel was stained with […] of ethidium bromide and then quantitated by densitometry.
^a Ten microliters of 200 u M pBR322 DNA nucelotides in UM 10 mM
TrisHCl (pH 7.8) and 50 mM NaCl, containing 4 mM Na2 --S2
O4 and 100 μM FeCl2, was incubated with drug concentration a
20° C. for 1 h; the reaction mixture was kept saturated with air
throughout the incubation period.
^b Percentage of DNA was calculated from the amounts of openand
closedcir- cular DNA in the incubation mixture.

[12] = at optimal dose, ip days 1, 5, 9

Question: For `Cc1nc2c(C(=O)N[C@@H]3C(=O)N[C@H](C(C)C)C(=O)N4CCC[C@H]4C(=O)N(C)CC(=O)N(C)[C@@H](C(C)C)C(=O)O[C@@H]3C)c3nc4c(C(=O)N[C@@H]5C(=O)N[C@H](C(C)C)C(=O)N6CCC[C@H]6C(=O)N(C)CC(=O)N(C)[C@@H](C(C)C)C(=O)O[C@@H]5C)c(N)c(=O)c(C)c-4oc3c(C)c2o1` [RAD I (3a)], which “% ILS” value [1, 12] is on record?
Answer: 124%

Question: What about the “survivors on day 65/total injected” value [1, 12] of the same molecule?
Answer: 6/9

Question: And the “MST (range), median survival time” value ([1]; at optimal dose, ip days 1, 5, 9, range of days of death)?
Answer: 65(55-62) days

Question: What about the optimal dose ([1]; ip, days 1, 5, 9) of the same molecule?
Answer: 300 μg/kg per inj

Question: What about the “therapeutic index MTD/MED” value ([2]; MTD in normal BDF1 mice / MED in P388 tumor bearing mice) of the same molecule?
Answer: 60

Question: What about the “MED (minimum effective dose), dose giving 45% increase in life span over control” value ([2]; ip once on days 1, 5, and 9, from plotted log-dose response data) of the same molecule?
Answer: 0.03 milligram/killogram

Question: And the “MTD (maximum tolerated dose), lethal dose for 10% of normal mice (LD10)” value [3]?
Answer: 1.80 milligram/kilogram

Question: With `COc1cccc2c1C(=O)c1c(O)c3c(c(O)c1C2=O)C[C@@](O)(C(=O)CO)C[C@@H]3O[C@H]1C[C@H](N)[C@H](O)[C@H](C)O1` [adriamycin] as the molecule, how does the “tumor free survivors/total on day 60” value [4] read?
Answer: 1/8

Question: What about the “% T/C (median survival time)” value ([5]; dose 2.0 mg/kg iv days 1, 5, 9) of the same molecule?
Answer: 103%

Question: What about the “% inhibn of tumor” value ([5]; dose 2.0 mg/kg iv days 1, 5, 9) of the same molecule?
Answer: 29%

Question: What about the “% T/C (median survival time)” value ([5]; dose 3.0 mg/kg iv days 1, 5, 9) of the same molecule?
Answer: 98%

Question: What about the “% inhibn of tumor” value ([5]; dose 3.0 mg/kg iv days 1, 5, 9) of the same molecule?
Answer: 70%

Question: What about the “% T/C (median survival time)” value ([5]; dose 4.0 mg/kg iv days 1, 5, 9) of the same molecule?
Answer: 250%

Question: And the “over 100 day survivors/number of mice” value ([5]; dose 4.0 mg/kg iv days 1, 5, 9)?
Answer: 5/9

Question: What about the “% inhibn of tumor” value ([5]; dose 4.0 mg/kg iv days 1, 5, 9) of the same molecule?
Answer: 93%

Question: What about the toxic deaths ([6]; dose 2.0 mg/kg iv days 1, 5, 9) of the same molecule?
Answer: 0/9

Question: What about the toxic deaths ([6]; dose 3.0 mg/kg iv days 1, 5, 9) of the same molecule?
Answer: 0/9

Question: And the toxic deaths ([6]; dose 4.0 mg/kg iv days 1, 5, 9)?
Answer: 3/9

Question: And the toxic deaths ([6]; dose 5.0 mg/kg iv days 1, 5, 9)?
Answer: 8/9

Question: What about the “% T/C, optimal” value ([7]; dose 6 × 10^3 μg/kg iv once a week for three weeks) of the same molecule?
Answer: 38%

Question: What about the “% T/C, optimal” value ([7]; dose 10 × 10^3 μg/kg iv once a week for three weeks) of the same molecule?
Answer: 39%

Question: What about the “response of CX-1 tumor to treatment (in words)” value ([7]; three iv treatments weekly from 15th day of transplant, at the doses tested) of the same molecule?
Answer: ineffective

Question: What about the “response of mammary MX-1 to treatment” value [8] of the same molecule?
Answer: some positive response

Question: What about the “response of lung LX-1 to treatment” value [9] of the same molecule?
Answer: some positive response

Question: With `CO[C@@]12[C@H](COC(N)=O)C3=C(C(=O)C(C)=C(N)C3=O)N1C[C@@H]1N[C@@H]12` [mitomycin C] as the molecule, how does the “tumor free survivors/total on day 60” value [4] read?
Answer: 1/8

Question: And the “tumor free survivors/total on day 60” value [10]?
Answer: 5/8

Question: Which results are given for bleomycin [BLM (bleomycin)]?
Answer: Percentage of closed circular pBR322 DNA cleaved [11]: 55%; Percentage of closed circular pBR322 DNA cleaved ([11]; concn 50 M (so in the source)): 75%; Percentage of closed circular pBR322 DNA cleaved ([11]; concn 100 M (so in the source)): 85%
